# Results reported in paper PMC6881533 (Journal of medicinal chemistry, 2019).
# Changes are numbered by the printed parent chain.
# What was measured:
# [1] = target: T1, T318I mutant of human CYP51 (Homo sapiens, UniProt Q16850, T324I); test: CYP51 inhibitor binding assay, T318I mutant
# T1 sequence (Q16850 1-509 T324I): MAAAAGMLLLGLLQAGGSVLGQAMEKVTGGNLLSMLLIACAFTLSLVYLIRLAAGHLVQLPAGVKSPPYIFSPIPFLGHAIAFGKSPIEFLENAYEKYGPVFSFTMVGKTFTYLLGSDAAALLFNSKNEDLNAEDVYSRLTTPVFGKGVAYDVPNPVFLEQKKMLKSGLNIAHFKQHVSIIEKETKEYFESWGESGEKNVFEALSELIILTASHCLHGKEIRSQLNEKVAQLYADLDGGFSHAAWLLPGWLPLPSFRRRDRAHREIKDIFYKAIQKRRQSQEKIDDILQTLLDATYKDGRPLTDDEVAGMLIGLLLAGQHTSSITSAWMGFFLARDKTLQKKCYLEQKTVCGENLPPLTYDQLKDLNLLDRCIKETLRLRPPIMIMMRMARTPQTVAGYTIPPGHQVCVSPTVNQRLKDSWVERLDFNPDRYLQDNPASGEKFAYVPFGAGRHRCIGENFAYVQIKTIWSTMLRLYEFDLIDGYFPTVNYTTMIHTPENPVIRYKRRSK
# human CYP51 (WT) = target: T2, human CYP51 (WT) (Homo sapiens, UniProt Q16850); test: CYP51 activity assay, inhibition of lanosterol 14α-demethylation; type: biochemical; details: WT enzyme, 1 h reaction
# T2 sequence (Q16850 1-509): T1 sequence (Q16850 1-509 T324I) with I324T
# [2] = target: T1, T318I mutant of human CYP51; test: CYP51 activity assay, inhibition of the T318I mutant; type: biochemical
# human CYP51 = target: T3, human CYP51 (Homo sapiens, UniProt Q16850); test: CYP51 inhibitor binding assay
# T3 sequence (Q16850 1-509): T1 sequence (Q16850 1-509 T324I) with I324T
# [3] = quoted in legend of Figure 1, reference not given; cited from earlier work
structure (smiles),measurement,setting,value
"O=C(N[C@@H](Cn1ccnc1)c1ccc(Cl)cc1Cl)c1ccc(-c2nnc(-c3ccccc3)o2)cc1 [VNI, (R)-N-(1-(2,4-dichlorophenyl)-2-(1 H-imidazol-1-yl)ethyl)-4-(5-phenyl-1,3,4-oxadiazol-2-yl)benzamide]",Kd,[1],0.4 µM
same,increase of binding affinity for the mutant,[1]; T318I vs WT enzyme,approximately 12 fold
same,inhibition of human CYP51 activity (in words),human CYP51 (WT),does not inhibit the WT human CYP51 at all
same,IC50,[2],> 25 µM
same,Kd,human CYP51,4.7 µM
O=C(N[C@@H](Cn1ccnc1)c1ccc(-c2ccc(F)cc2)cc1F)c1ccc(-c2nnc(-c3ccccc3)o2)cc1 [VFV],Soret band maximum,"human CYP51; inhibitor-bound human CYP51, red shift from 417 nm",425 nm
CCC(C)n1ncn(-c2ccc(N3CCN(c4ccc(OCC5COC(Cn6cncn6)(c6ccc(Cl)cc6Cl)O5)cc4)CC3)cc2)c1=O (stereo not drawn) [itraconazole],log P,[3],6.8
CC[C@@H]([C@H](C)O)n1ncn(-c2ccc(N3CCN(c4ccc(OC[C@@H]5CO[C@@](Cn6cncn6)(c6ccc(F)cc6F)C5)cc4)CC3)cc2)c1=O [posaconazole],log P,[3],5.5
C[C@@H](NCCCc1cccc(C(F)(F)F)c1)c1cccc2ccccc12 [cinacalcet],log P,[3],6.5
